Data as given in US20210361600A1, “METHODS FOR INDUCING CHONDROGENESIS” (THE SCRIPPS RESEARCH INSTITUTE, priority 2017, published 2021).

Experiments:
[1] = system: Rat Medial Meniscal Tear Model; test: Effect of dose frequency of compound A in a rat medial meniscal tear model; assay type: in vivo, Lewis rats
Description: The vehicle was prepared separately, then added to aliquots of compound A powder, and the mixture was then vortexed until it becomes a clear solution. Dosing solutions were prepared for doses of 3.5 and 0.35 μg/kg (100 μM and 10 μM respectively). Dosing volume was set to 30 μL/knee. Dosing solutions were prepared fresh weekly.
Fourteen-week-old male Lewis rats (Charles River, Kingston, N.Y.) were in the weight range of 300-320 g at the start of the study
Rats were sorted based on body weight into 8 study groups of 15 rats. They were surgerized and enrolled in a staggered fashion across one week (20 animals per day for 6 days). Briefly, animals were anesthetized with a ketamine/xylazine cocktail (50 mg/kg Ketaved—Henry Schein, and 5 mg/kg Xyalzine—AniSed respectively) by intraperitoneal injection, administered appropriate analgesics (Flunixin, 5 mg/kg subcutaneous injection), and the surgical site shaved and disinfected. A small incision was made on the medial right hind knee to expose the collateral ligament. The collateral ligament was transected and the joint capsule opened sufficiently to expose the medial meniscus. The meniscus was transected completely, then the skin incision was closed, and pressure applied to the wound to prevent hematoma development. Animals were allowed to recover on a heated blanket and were returned to their home cage. Sham procedures were carried out in a similar fashion, except the medial meniscus was not cut. All surgical procedures were performed aseptically and all procedures were approved by the institute IACUC. Animals were monitored daily for the following week for postoperative care prior to dosing. Any animals with atypical healing (bruising/hematoma) were removed from the study and replaced with spare animals.
Animals were weighed weekly at the time of dosing (8-10 am), and a standardized dose of 30 μl of either vehicle or compound was administered via injection into the intra-articular space according to the regimens outlined above (groups A, B, E and H dosed once weekly, groups C and F dosed every other week, and groups D and G dosed once for the duration of the study). Animals were dosed using a Hamilton syringe with a 27 G needle attached. On study day 28, animals were euthanized, a terminal blood sample collected, and knees were harvested and placed in formalin jars for histology analysis and pathology scoring.
Analysis of the knee joint histology was performed by Bolder BioPATH. A variety of measurements to characterize the lesions were performed to score the joints based on lesion depth, severity, and overall size.

in vivo = conditions: Crl:CD(SD), rat

With `COCCc1ccc(NC(=O)c2ccccc2NS(C)(=O)=O)cc1` [Compound A, N-(4-(2-methoxyethyl)phenyl)-2-(methylsulfonamido)benzamide] the “combined cartilage degeneration widths with scores from mild to severe” value ([1]; 10 μM (0.105 μg/knee) IA once every other week, vs vehicle) was “statistically significant improvement”, the “substantial cartilage degeneration width” value ([1]; 10 μM (0.105 μg/knee) IA once weekly or once every other week, vs vehicle) was “improvement” and the mild-to-severe degeneration widths ([1]; 10 μM (0.105 μg/knee) IA weekly) was “trend towards a reduction”. For the same compound, the adverse effects ([1]; IA, any dosing schedule (once weekly, once every other week, once per study), 100 μM or 10 μM) was “no adverse effects”, the “progression of cartilage degeneration” value ([1]; dosing once every four weeks) was “did not demonstrate an effect” and the “width of cartilage lesions where greater than 10% of the cartilage is damaged or lost” value ([1]; dosing once every other week) was “significant reduction”. For the same compound, the “most severe cartilage lesions” value ([1]; not statistically significant) was “trend towards an improvement”, the “time up to which quantifiable in the plasma of all animals” value (in vivo; both) was “at least 2 hours” and the AUC(0-t) (in vivo; female, 70 ug/kg) was 20.3 ng·h/mL. It also gave a Cmax (in vivo; female, 70 ug/kg) of 11.6 ng/mL, an AUC(0-t) (in vivo; female, 70 ug/kg, AUC0-t) of 18.5 ng·h/mL and a Cmax (in vivo; female, 70 ug/kg, Cmax) of 19.5 ng/mL. It also gave an AUC(0-t) (in vivo; female, 140 ug/kg) of 52.3 ng·h/mL, a Cmax (in vivo; female, 140 ug/kg) of 34.5 ng/mL and an AUC(0-t) (in vivo; female, 140 ug/kg, AUC0-t) of 43.5 ng·h/mL. The Cmax (in vivo; female, 140 ug/kg, Cmax) was 42.3 ng/mL, the AUC(0-t) (in vivo; female, 200 ug/kg) was 64.9 ng·h/mL and the AUC(0-t) (in vivo; female, 200 ug/kg, AUC0-t) was 39.3 ng·h/mL. For the same compound, the Cmax (in vivo; female, 200 ug/kg, Cmax) was 59.8 ng/mL, the AUC(0-t) (in vivo; male, 70 ug/kg) was 8.14 ng·h/mL and the Cmax (in vivo; male, 70 ug/kg) was 8.41 ng/mL. The AUC(0-t) (in vivo; male, 70 ug/kg, AUC0-t) was 8.33 ng·h/mL, the Cmax (in vivo; male, 70 ug/kg, Cmax) was 8.24 ng/mL and the AUC(0-t) (in vivo; male, 140 ug/kg) was 18.4 ng·h/mL. The Cmax (in vivo; male, 140 ug/kg) was 18.6 ng/mL, the AUC(0-t) (in vivo; male, 140 ug/kg, AUC0-t) was 15.4 ng·h/mL and the Cmax (in vivo; male, 140 ug/kg, Cmax) was 23.5 ng/mL. For the same compound, the AUC(0-t) (in vivo; male, 200 ug/kg) was 35.5 ng·h/mL, the AUC(0-t) (in vivo; male, 200 ug/kg, AUC0-t) was 22.9 ng·h/mL and the Cmax (in vivo; male, 200 ug/kg, Cmax) was 33.9 ng/mL.
